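Assay format: 96-well plates, 48-hour exposure. Definition used: TGI = concentration required for complete inhibition of growth.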
Legend:
Test in all cases: NCI-60 cell line screen, 48 h
HOP-62 NSCLC = test system: HOP-62 NSCLC
HL-60(TB) leukemia = test system: HL-60(TB) leukemia
UACC-62 melanoma = test system: UACC-62 melanoma
K-562 leukemia = test system: K-562 leukemia
HCT-116 colon = test system: HCT-116 colon
MDA-MB-231 breast = test system: MDA-MB-231 breast
HCT-15 colon = test system: HCT-15 colon
OVCAR-4 ovarian = test system: OVCAR-4 ovarian
SR leukemia = test system: SR leukemia
SK-MEL-28 melanoma = test system: SK-MEL-28 melanoma
786-0 renal = test system: 786-0 renal
COLO 205 colon = test system: COLO 205 colon
NCI-H460 lung = test system: NCI-H460 lung

Question: For `CC(=O)OCC12C(OC(C)=O)C[C@@H](C)C3(CC(c4ccoc4)OC3=O)C1CCC(O)C21CO1` (stereo not given in full), which TGI (HOP-62 NSCLC) is on record?
Answer: Its TGI is greater than 100 µM.

Question: And the TGI (HL-60(TB) leukemia)?
Answer: The TGI was greater than 100 µM.

Question: What about the TGI (UACC-62 melanoma) of the same molecule?
Answer: The TGI was greater than 100 µM.

Question: What about the TGI (K-562 leukemia) of the same molecule?
Answer: The TGI was greater than 100 µM.

Question: What about the TGI (HCT-116 colon) of the same molecule?
Answer: Its TGI is greater than 100 µM.

Question: What about the TGI (MDA-MB-231 breast) of the same molecule?
Answer: Its TGI is greater than 100 µM.

Question: And the TGI (HCT-15 colon)?
Answer: Its TGI is greater than 100 µM.

Question: What about the TGI (OVCAR-4 ovarian) of the same molecule?
Answer: The TGI was greater than 100 µM.

Question: And the TGI (SR leukemia)?
Answer: Its TGI is greater than 100 µM.

Question: What about the TGI (SK-MEL-28 melanoma) of the same molecule?
Answer: Its TGI is greater than 100 µM.

Question: What about the TGI (786-0 renal) of the same molecule?
Answer: Its TGI is greater than 100 µM.

Question: What about the TGI (COLO 205 colon) of the same molecule?
Answer: The TGI was greater than 100 µM.

Question: Which results are given for `C=C1CC(Cn2cc(C)c(=O)[nH]c2=O)(c2ccc(-c3ccccc3)cc2)OC1=O` (stereo not given)?
Answer: TGI (HOP-62 NSCLC): 29.4 µM; TGI (UACC-62 melanoma): 3.77 µM; TGI (K-562 leukemia): 2.3 µM; TGI (HCT-116 colon): 2.03 µM; TGI (MDA-MB-231 breast): 5.16 µM; TGI (HCT-15 colon): 3.72 µM; TGI (NCI-H460 lung): 20.8 µM; TGI (OVCAR-4 ovarian): 6.76 µM; TGI (SR leukemia): 12.8 µM; TGI (SK-MEL-28 melanoma): 3.75 µM; TGI (786-0 renal): 2.22 µM; TGI (COLO 205 colon): 2.89 µM

Question: For `[N-]=[N+]=Nc1c([N+](=O)[O-])c(Cl)nc2ccccc12`, which TGI (HOP-62 NSCLC) is on record?
Answer: The TGI was 41.4 µM.

Question: What about the TGI (UACC-62 melanoma) of the same molecule?
Answer: The TGI was 9.07 µM.

Question: And the TGI (K-562 leukemia)?
Answer: The TGI was 1.74 µM.

Question: What about the TGI (HCT-116 colon) of the same molecule?
Answer: The TGI was 3.09 µM.

Question: And the TGI (MDA-MB-231 breast)?
Answer: Its TGI is 3.65 µM.

Question: And the TGI (HCT-15 colon)?
Answer: Its TGI is 3.77 µM.

Question: And the TGI (NCI-H460 lung)?
Answer: Its TGI is 33.2 µM.

Question: What about the TGI (OVCAR-4 ovarian) of the same molecule?
Answer: The TGI was 4.75 µM.

Question: What about the TGI (SK-MEL-28 melanoma) of the same molecule?
Answer: Its TGI is 5.23 µM.

Question: And the TGI (786-0 renal)?
Answer: The TGI was 1.11 µM.

Question: And the TGI (COLO 205 colon)?
Answer: The TGI was 3.29 µM.

Question: Which results are given for `Cc1cc2c(cc1C)[n+](=O)c(N1CCN(c3ccc([N+](=O)[O-])cc3)CC1)c(C#N)n2[O-]`?
Answer: TGI (HOP-62 NSCLC): 31.7 µM; TGI (HL-60(TB) leukemia): > 100 µM; TGI (UACC-62 melanoma): 59.9 µM; TGI (HCT-116 colon): > 100 µM; TGI (MDA-MB-231 breast): 78.1 µM; TGI (HCT-15 colon): > 100 µM; TGI (NCI-H460 lung): 70 µM; TGI (OVCAR-4 ovarian): > 100 µM; TGI (SK-MEL-28 melanoma): > 100 µM; TGI (786-0 renal): 59.8 µM; TGI (COLO 205 colon): > 100 µM

Question: What does the source list for `CSc1nc2c(N)ncnc2n1C`?
Answer: TGI (HOP-62 NSCLC): > 100 µM; TGI (UACC-62 melanoma): > 100 µM; TGI (K-562 leukemia): > 100 µM; TGI (HCT-116 colon): > 100 µM; TGI (MDA-MB-231 breast): > 100 µM; TGI (HCT-15 colon): > 100 µM; TGI (NCI-H460 lung): > 100 µM; TGI (OVCAR-4 ovarian): > 100 µM; TGI (SK-MEL-28 melanoma): > 100 µM; TGI (786-0 renal): > 100 µM; TGI (COLO 205 colon): > 100 µM

Question: For `CC1C/C(=N\N(C)C)C(C#N)(C#N)C1(C#N)C#N` (stereo not given), which TGI (HOP-62 NSCLC) is on record?
Answer: The TGI was 39.4 µM.

Question: And the TGI (HL-60(TB) leukemia)?
Answer: Its TGI is greater than 100 µM.

Question: What about the TGI (UACC-62 melanoma) of the same molecule?
Answer: The TGI was 39.5 µM.

Question: What about the TGI (K-562 leukemia) of the same molecule?
Answer: Its TGI is greater than 100 µM.

Question: And the TGI (HCT-116 colon)?
Answer: The TGI was 38.4 µM.

Question: And the TGI (MDA-MB-231 breast)?
Answer: Its TGI is 1.32 µM.

Question: And the TGI (HCT-15 colon)?
Answer: Its TGI is 21.1 µM.

Question: What about the TGI (OVCAR-4 ovarian) of the same molecule?
Answer: Its TGI is 25.6 µM.

Question: What about the TGI (SR leukemia) of the same molecule?
Answer: The TGI was 17.2 µM.

Question: What about the TGI (SK-MEL-28 melanoma) of the same molecule?
Answer: The TGI was greater than 78.6 µM.

Question: What about the TGI (786-0 renal) of the same molecule?
Answer: Its TGI is 14.6 µM.

Question: What about the TGI (COLO 205 colon) of the same molecule?
Answer: Its TGI is 5.67 µM.

Question: For `CN(C)CCNC(=O)c1cccc2nc3cccc(F)c3nc12`, which TGI (HOP-62 NSCLC) is on record?
Answer: The TGI was 8.55 µM.

Question: And the TGI (HL-60(TB) leukemia)?
Answer: The TGI was 6.39 µM.

Question: What about the TGI (UACC-62 melanoma) of the same molecule?
Answer: The TGI was greater than 19.8 µM.

Question: And the TGI (K-562 leukemia)?
Answer: Its TGI is 12.3 µM.

Question: What about the TGI (HCT-116 colon) of the same molecule?
Answer: The TGI was 4.56 µM.

Question: What about the TGI (MDA-MB-231 breast) of the same molecule?
Answer: The TGI was 6.77 µM.

Question: What about the TGI (HCT-15 colon) of the same molecule?
Answer: Its TGI is 5.77 µM.

Question: And the TGI (NCI-H460 lung)?
Answer: The TGI was 2.73 µM.

Question: What about the TGI (OVCAR-4 ovarian) of the same molecule?
Answer: Its TGI is 4.83 µM.

Question: What about the TGI (SK-MEL-28 melanoma) of the same molecule?
Answer: The TGI was 11.5 µM.

Question: And the TGI (786-0 renal)?
Answer: The TGI was 24.8 µM.

Question: And the TGI (COLO 205 colon)?
Answer: Its TGI is 1.89 µM.

Question: With `COP1(=O)NCc2ncccc2O1` (stereo not given) as the molecule, how does the TGI (HOP-62 NSCLC) read?
Answer: The TGI was greater than 100 µM.

Question: And the TGI (UACC-62 melanoma)?
Answer: Its TGI is greater than 100 µM.

Question: And the TGI (K-562 leukemia)?
Answer: Its TGI is greater than 100 µM.

Question: And the TGI (HCT-116 colon)?
Answer: Its TGI is greater than 100 µM.

Question: What about the TGI (MDA-MB-231 breast) of the same molecule?
Answer: The TGI was greater than 100 µM.

Question: And the TGI (HCT-15 colon)?
Answer: The TGI was greater than 100 µM.

Question: And the TGI (NCI-H460 lung)?
Answer: Its TGI is greater than 100 µM.

Question: And the TGI (OVCAR-4 ovarian)?
Answer: Its TGI is greater than 100 µM.

Question: And the TGI (SR leukemia)?
Answer: The TGI was greater than 100 µM.

Question: And the TGI (SK-MEL-28 melanoma)?
Answer: The TGI was greater than 100 µM.

Question: And the TGI (786-0 renal)?
Answer: Its TGI is greater than 100 µM.

Question: And the TGI (COLO 205 colon)?
Answer: Its TGI is greater than 100 µM.

Question: Which TGI (HOP-62 NSCLC) does the source give for `CCn1c(=O)ccc2ccc(N(CCO)CCO)nc21` here?
Answer: Its TGI is greater than 100 µM.

Question: What about the TGI (UACC-62 melanoma) of the same molecule?
Answer: The TGI was greater than 100 µM.

Question: What about the TGI (K-562 leukemia) of the same molecule?
Answer: The TGI was greater than 100 µM.

Question: What about the TGI (HCT-116 colon) of the same molecule?
Answer: Its TGI is greater than 100 µM.

Question: And the TGI (MDA-MB-231 breast)?
Answer: The TGI was greater than 100 µM.

Question: And the TGI (HCT-15 colon)?
Answer: Its TGI is greater than 100 µM.

Question: And the TGI (NCI-H460 lung)?
Answer: The TGI was greater than 100 µM.

Question: And the TGI (OVCAR-4 ovarian)?
Answer: The TGI was greater than 100 µM.

Question: And the TGI (SR leukemia)?
Answer: Its TGI is greater than 100 µM.

Question: And the TGI (SK-MEL-28 melanoma)?
Answer: The TGI was greater than 100 µM.

Question: What about the TGI (786-0 renal) of the same molecule?
Answer: The TGI was greater than 100 µM.

Question: And the TGI (COLO 205 colon)?
Answer: Its TGI is greater than 100 µM.

Source: PubChem BioAssay (NCI)
